Laboratory results as given in patent US8492387B2, “2-aminoimidazole beta-secretase inhibitors for the treatment of alzheimer's disease” (Merck, Sharp & Dohme, Corp., priority 2008, dated 2013).

Target: BACE 1 (beta-secretase enzyme) (Homo sapiens (Human), UniProt P56817)
Assay: ECL Assay (homogeneous end point electrochemiluminescence assay with biotinylated BACE substrate)
Format: biochemical
Conditions: soluble human enzyme, pH 6.5, rt
Method: Enzyme inhibition is determined as follows.
ECL Assay: A homogeneous end point electrochemiluminescence (ECL) assay is performed using a biotinylated BACE substrate. The Km of the substrate is approximated at 50 μM. A typical reaction contains approximately 0.6 nM enzyme, 0.25 μM of the substrate, and buffer (50 mM Pipes, pH 6.5, 0.1 mg/ml BSA, 0.2% CHAPS, 15 mM EDTA and 1 mM deferoxamine) in a total reaction volume of 100 μl. The reaction proceeds for 1-2 hrs and is then stopped by the addition of 150 μL of a quench cocktail solution ([…], pH 8.0, 50 μL INC buffer (2% BSA, 0.2% Tween-20 and 0.05% sodium azide diluted in phosphate buffered saline (PBS) plus 75 μL, PBS), containing streptavadin coated magnetic beads and ruthenylated antibody which specifically recognizes the C-terminal residue of the product. The samples are subjected to M-384 (Igen Inc., Gaithersburg, Md.) analysis. Under these conditions, less than 10% of substrate is processed by BACE 1. The enzyme used in these studies is soluble (transmembrane domain and cytoplasmic extension excluded) human protein produced in a baculovirus expression system. To measure the inhibitory potency for compounds, 10 concentrations of inhibitors are prepared starting from 200 μM with three fold series dilution. Solutions of the inhibitor in DMSO are included in the reaction mixture (final DMSO concentration is 10%). All experiments are conducted at rt using the standard reaction conditions described above. To determine the IC50 of the compound, a four parameter equation is used for curve fitting. The errors in reproducing the dissociation constants are typically less than two-fold.

Sequence of BACE 1 (beta-secretase enzyme) (P56817 46-457): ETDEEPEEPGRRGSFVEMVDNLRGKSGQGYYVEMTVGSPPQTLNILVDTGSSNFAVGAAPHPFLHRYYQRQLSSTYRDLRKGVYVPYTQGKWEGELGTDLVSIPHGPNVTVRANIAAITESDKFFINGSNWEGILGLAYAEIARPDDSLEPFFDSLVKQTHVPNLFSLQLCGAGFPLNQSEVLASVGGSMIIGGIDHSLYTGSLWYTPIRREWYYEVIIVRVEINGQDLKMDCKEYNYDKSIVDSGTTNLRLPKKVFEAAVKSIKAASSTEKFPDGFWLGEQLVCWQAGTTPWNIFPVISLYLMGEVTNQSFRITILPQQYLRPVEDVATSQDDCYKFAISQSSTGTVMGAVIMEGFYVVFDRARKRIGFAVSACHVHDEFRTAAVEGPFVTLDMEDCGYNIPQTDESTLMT

Row | Compound | IC50 [µM]
1 | COc1ccc(C(Cc2cccc(-c3ccc(C(F)(F)F)cc3Cl)c2)c2cn(C)c(N)n2)cc1 (centres unmarked) [Example 34, 4-[2-[2′-chloro-4′-(trifluoromethyl)biphenyl-3-yl]-1-(4-methoxyphenyl)ethyl]-1-methyl-1H-imidazol-2-amine] | 11
2 | COc1ccc(C2(c3cn(C)c(N)n3)CCCCC2)cc1 [Example 41, 4-[1-(4-methoxyphenyl)cyclohexyl]-1-methyl-1H-imidazol-2-amine] | 27
3 | COc1ccc2c(c1)CCC2(Cc1cc([N+](=O)[O-])ccc1OC)c1cn(C)c(N)n1 (centres unmarked) [Example 111, 4-[5-methoxy-1-(2-methoxy-5-nitrobenzyl)-2,3-dihydro-1H-inden-1-yl]-1-methyl-1H-imidazol-2-amine] | 3.2
4 | COc1ccc2c(c1)CCC2(Cc1ccc(C(F)(F)F)nc1)c1cn(Cc2ccccc2)c(N)n1 (centres unmarked) [Example 114, 1-benzyl-4-(5-methoxy-1-{[6-(trifluoromethyl)pyridin-3-yl]methyl}-2,3-dihydro-1H-inden-1-yl)-1H-imidazol-2-amine] | 0.063
5 | COc1ccc2c(c1)CCC2(Cc1ccc(C(F)(F)F)nc1)c1cn(CCCO)c(N)n1 (centres unmarked) [Example 115, 3-[2-amino-4-(5-methoxy-1-{[6-(trifluoromethyl)pyridin-3-yl]methyl}-2,3-dihydro-1H-inden-1-yl)-1H-imidazol-1-yl]propan-1-ol] | 3.3

Further molecules by falling IC50, results first:

Row | IC50 [µM] | Compound
6 | 17 | COc1ccc(C(Cc2ccc(-c3ccc(O)nc3)cc2)c2cn(C)c(N)n2)cc1 (centres unmarked) [Example 55, 5-{4-[2-(2-amino-1-methyl-1H-imidazol-4-yl)-2-(4-methoxyphenyl)ethyl]phenyl}pyridin-2-ol]
7 | 12 | Cn1cc(C2(Cc3ccccc3)CCc3ccccc32)nc1N (centres unmarked) [Example 3, 4-(1-benzyl-2,3-dihydro-1H-inden-1-yl)-1-methyl-1H-imidazol-2-amine]
8 | 5 | COc1ccc([C@H](Cc2ccc(C(F)(F)F)cc2)c2nc(N)[nH]c2C(O)c2ccccc2)cc1 (stereo partly drawn) [Example 2, (2-amino-4-{(1S)-1-(4-methoxyphenyl)-2-[4-(trifluoromethyl)phenyl]ethyl}-1H-imidazole-5-yl) (phenyl)methanol]
